Results on 14 compounds are retold here after PubChem BioAssay (NCI).

Structures are written as SMILES.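 Step 1: Grow cells in 96-well plates. Step 2: Expose to compound for 48 hours at 5 concentrations. Step 3: Interpolate endpoints linearly; if unreached, use highest concentration. GI50 marks 50% less growth. Definition used: TGI = concentration required for complete inhibition of growth.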

What all share (test): growth of human tumour cells (NCI), 48 h
Test [1] concerns SW-620 colon.
Test [2] deals with SK-MEL-2 melanoma.
Test [3] concerns SF-268 CNS.
The subject of test [4] is OVCAR-4 ovarian.
For test [5], the system named is EKVX NSCLC.
Test [6] concerns RPMI-8226 leukemia.
Test [7] deals with NCI-H226 lung.
Test [8] relates to M14 melanoma.
Test [9] deals with SR leukemia.
The subject of test [10] is NCI-H522 lung.

Consider `CCNc1cc2c3c(c1)CCCN3CCC2`, for which the TGI in test [1] stood at 55.2 µM; in test [2], 30 µM; in test [3], 33.3 µM; in test [4] it was 32.3 µM; in test [5] it was 48.4 µM; in [6] it was 57.1 µM. For the same compound, the TGI was 41.9 µM in test [7], 63.7 µM in test [8], 27.4 µM in [9] and 62.7 µM in [10].
Consider `O=[N+]([O-])c1ccc2nc(/C=C(\O)c3ccccc3)c(/C=C(\O)c3ccccc3)nc2c1`, for which the GI50 in test [1] was 6.11 µM; in [6] it was 5.21 µM. Besides, the TGI in test [1] is 61.4 µM; in test [2] it was above 82.2 µM; in [3] it was 53.4 µM; in [4], 32.5 µM; in [5] it was above 100 µM; in [6] it was 61.7 µM. For the same compound, the TGI in test [7] is above 100 µM; in test [8] it was above 67.3 µM; in test [9], above 94.9 µM; in [10] it was 38.7 µM.
In the case of `CSC1(SC)N2Cc3ccccc3N=C2C1(c1ccccc1)c1ccccc1`, the TGI in [1] was above 63.7 µM; in test [2], above 58.1 µM; in test [3], above 100 µM; in [4] it was above 100 µM; in test [5], above 89 µM; in [6], 97.1 µM. For the same compound, the TGI is above 100 µM in test [7], above 100 µM in test [8], 9.36 µM in test [9] and 29.4 µM in test [10].
Take `COc1cc2c(cc1OC(=O)c1cc3ccccc3[nH]1)N=C[C@@H]1CCCN1C2=O`: the TGI was 10.4 µM in [1]; 0.55 µM in test [2]; above 22.2 µM in test [3]; 2.15 µM in [4]; 3.2 µM in test [5]; 1.95 µM in test [6]. The TGI worked out at 5.97 µM in [7], 0.387 µM in test [8], 0.969 µM in [9] and 1.19 µM in test [10].
Turning to `CCCCC1(N=[N+]=[N-])C(=O)C2C=CC=C3c4ccccc4N(C1=O)C32` (stereo not given), the TGI is above 31.6 µM in test [1]; 21.5 µM in test [2]; above 31.6 µM in test [3]; above 31.6 µM in test [4]; above 31.6 µM in test [5]; above 31.6 µM in [6]. Besides, the TGI was above 31.6 µM in test [7], above 31.6 µM in test [8], above 10 µM in [9] and 25.1 µM in test [10].
As for `COc1cc(/C=C2\N=C(C)N(n3c(-c4ccccc4)nc4ccccc4c3=O)C2=O)cc(OC)c1OC`, the TGI in test [1], in test [3], in [5], in test [6], in test [7] and in test [8] was above 100 µM in each case. Moreover, the TGI in [9] and in test [10] was above 100 µM throughout.
As to `COC(=O)c1c(O)ccc2c1c1c(n2Cc2ccccn2)C(=O)c2ccccc2C1=O`, the TGI in test [2], in [3], in [5], in [6], in test [7] and in [8] was above 100 µM each time. Besides, the TGI came out at 64.2 µM in test [9] and 95.6 µM in [10].
With `C=CC[C@@H]1C=C[C@@H](C(=O)OC)n2c(=O)n(-c3ccccc3)c(=O)n21`, the TGI in [1], in test [3], in test [4], in test [5], in [6] and in test [7] was above 100 µM each time. Further, the TGI in test [8], in [9] and in test [10] was above 100 µM throughout.
`O=c1oc2c/c(=C\c3ccccc3)c(=O)c3cccc1c3-2`: the TGI in test [1] was 57.1 µM; in [3], 58.7 µM; in test [5] it was above 100 µM; in test [6], 88.1 µM; in test [7] it was 75.3 µM; in test [8], 48.6 µM. The results for the TGI in test [9] and in test [10] were above 100 µM and 45.1 µM, respectively.
`COc1ccc(-c2nnc(-c3ccncc3)o2)cc1`: the TGI in test [2], in test [3], in test [4], in [5], in test [6] and in test [7] was above 100 µM in each case. Also, the TGI in test [8], in test [9] and in test [10] was above 100 µM in each case.
For `Cc1ccc(S(=O)(=O)C2c3nc4ccccc4cc3-c3nc4ccccc4nc32)cc1` (stereo not given), the TGI in test [1], in test [2], in [3], in [4], in [5] and in test [6] was above 100 µM each time. In addition, the TGI in [8], in [9] and in [10] was above 100 µM each time.
With `Nc1nn(CC(O)CO)c(=O)s1` (stereo not given), the TGI in [1], in test [2], in test [3], in test [4], in [5] and in [6] was above 100 µM each time. In addition, the TGI in test [7], in test [8] and in test [9] was above 100 µM in each case.
As for `CCCC(=O)Nc1cc(/C=C/C(=O)N2CC(CCl)c3c2cc([N+](=O)[O-])c2ccccc32)n(C)c1` (stereo not given), the TGI in [1], in test [2], in test [3], in test [4], in [6] and in test [7] was above 100 µM in each case. The TGI in test [8], in test [9] and in [10] was above 100 µM in each case.
As for `CCOc1cc2c(cc1O)CC[C@@H]1[C@@H]2CC[C@]2(C)C(OS(=O)OC3CC[C@@H]4[C@H]5CCc6cc(O)c(OCC)cc6[C@@H]5CC[C@@]34C)CC[C@@H]12` (stereo not given in full), the TGI is 11 µM in test [1]; 6.19 µM in test [2]; above 100 µM in test [3]; above 64.5 µM in [4]; above 37.7 µM in [5]; 13.9 µM in [6]. For the same compound, the TGI in [7] is 14.6 µM; in [8], 2.58 µM; in test [9], above 44 µM.
